The text below walks through data of patent US8552031B2, “3-ethylidenehydrazino substituted heterocyclic compounds as thrombopoietin receptor activators” (Nissan Chemical Industries, Ltd., priority 2004, dated 2013).

Assay [1] addresses T1, human TPO receptor (c-mp1) (Homo sapiens, UniProt P40238).
T1 construct: expressed in transfected cells
T1 sequence (P40238 26-635): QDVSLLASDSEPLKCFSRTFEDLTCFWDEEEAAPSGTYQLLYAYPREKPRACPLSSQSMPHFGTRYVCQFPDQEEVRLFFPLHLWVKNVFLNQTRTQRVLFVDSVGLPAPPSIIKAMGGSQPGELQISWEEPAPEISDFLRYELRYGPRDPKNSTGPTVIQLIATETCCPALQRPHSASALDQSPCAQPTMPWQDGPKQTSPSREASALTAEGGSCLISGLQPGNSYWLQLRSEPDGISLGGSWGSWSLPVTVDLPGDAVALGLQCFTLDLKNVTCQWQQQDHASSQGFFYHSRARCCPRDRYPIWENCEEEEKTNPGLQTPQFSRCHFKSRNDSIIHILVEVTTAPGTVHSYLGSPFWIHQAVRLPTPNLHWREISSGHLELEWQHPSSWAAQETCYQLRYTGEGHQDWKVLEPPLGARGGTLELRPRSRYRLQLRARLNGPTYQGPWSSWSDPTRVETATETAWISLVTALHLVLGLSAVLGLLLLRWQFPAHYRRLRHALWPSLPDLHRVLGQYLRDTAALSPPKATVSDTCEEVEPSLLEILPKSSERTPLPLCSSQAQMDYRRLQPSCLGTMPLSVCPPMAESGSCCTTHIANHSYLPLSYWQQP
In words: Stimulation of proliferation of TPO-dependent cell line UT7/EPO-mpl (WST-8). The assay is classed as cell-based. The method, then: The reactivity of the compound of Synthetic Example 4 of the present invention with thrombopoietin (TPO) receptor was assayed using a human leukemic cell line, UT7/EPO-mpl.
(§1) UT7/EPO-mpl is a stable transformed cell line obtained by introducing into human leukemic cell line UT7/EPO a vector that induces expression of human TPO receptor (c-mp1) under control of cytomegalovirus immediate-early promoter by the method of Takatoku et al. (J. Biol. Chem., 272:7259-7263 (1997)). […] These two cell lines were subcultured in Iscove's modified Dulbecco's medium (IMDM; GIBCO) containing 10% fetal bovine serum (FBS; Thermo Electron or BioWest) using a CO2 incubator (5% CO2, 37° C.).
(§2) The subcultured cells described above were washed twice with phosphate buffered saline (PBS) and suspended in IMDM containing 10% FBS at a cell density of 6×10^4 cells/ml. The cell suspension was transferred to a 96-well tissue culture plate (CORNING) in 100-μl aliquots. Then either TPO (Pepro Tech EC) or the compound of Synthetic Example 4 dissolved in dimethyl sulfoxide (DMSO) was diluted 83-fold with IMDM containing 10% FBS and added to the aforementioned cell suspension in 20-μl aliquots. The cell suspension was incubated in a CO2 incubator (5% CO2, 37° C.) for 4 days. Cell proliferation was assayed using WST-8 reagent (Kishida Chemical Co., Ltd.) according to instructions by the manufacturer. A 10-μl aliquot of 5 mM WST-8 reagent solution was added to each well of the tissue culture plate, and the plate was incubated at 37° C. for 4 h. The formazan pigment generated was detected by measuring the absorbance at 450 nm with a 96-well microplate reader (Nihon Molecular Devices, Spectramax 190).
The compounds of the following Synthetic Examples were tested according to the method of Assay Example 1 to determine the concentration of each compound that yields a growth rate corresponding to 50% of the growth of human leukemic cell line UT-7/EPO-mpl observed in the presence of 10 ng/ml TPO (EC50).

The test system of another assay is UT7/EPO cells. In words: Proliferation of mother cell line UT7/EPO expressing no TPO receptor (WST-8). The assay is classed as cell-based, human. To be noted: FIG. 2, 4 days incubation. The method, then: as §1
as §2, with “A 10-μl aliquot of 5 mM WST-8 reagent solution was added to each well of the tissue culture plate, and the plate was incubated at 37° C. for 4 h.” left out

Consider `CC(=NNC(=S)NCC(=O)O)c1csc(-c2ccc(Cl)c(Cl)c2)c1O` [Synthetic Example 4, 2-[(2-{1-[5-(3,4-dichlorophenyl)-4-hydroxythiophen-3-yl]-etylidene}-hydrazinocarbonothioyl)amino]acetic acid], for which the “proliferation of TPO-responsive UT7/EPO-mpl cells” value in assay [1] (FIG. 1, 4 days incubation, WST-8, absorbance at 450 nm) is reported as “stimulated by the compound of Synthetic Example 4 in a concentration-dependent manner”. The concentration for a half-maximal effect (EC50) in assay [1] (concentration that yields a growth rate corresponding to 50% of the growth of UT-7/EPO-mpl observed in the presence of 10 ng/ml TPO, 4 days incubation) is 5.6 ng/mL. The “selectivity of action on the TPO receptor” value in assay [1] (concluded from UT7/EPO-mpl versus UT7/EPO proliferation (FIG. 1, FIG. 2)) was “acts on the TPO receptor selectively as an activator”. In addition, in the assay with UT7/EPO cells, the “effect on proliferation of UT7/EPO, the mother cell line” value is recorded as “no effect”.
